Data on 14 compounds can be found in patent US5627270A, “Glycosylated steroid derivatives for transport across biological membranes and process for making and using same” (Trustees of Princeton University, priority 1994, dated 1997).

In data set [1] the test system is DH2 cells (a mutant strain of E. coli K-12). Type of data set: cell-based. The note with it: for EFFECT (enhancement of erythromycin): compound 20 mM. On EFFECT (enhancement of erythromycin): key: --: erythromycin alone at 1.0 mM (baseline) and all lesser effects; +: enhancement relative to baseline; +++: significant enhancement relative to baseline.
For data set [2], the system named is Crithidia fasciculate. Nature of the data set: ASSAY IV: efficacy of antifungal agents on protozoa with and without added glycosylated steroid derivatives. Type of data set: cell-based.
Data set [3] in a line: ASSAY I: leakage of carboxyfluorescein from vesicles. The note with it: for efficacy in permeabilizing phospholipid membranes: concentrations required for >50% leakage taken as measure. Type of data set: biochemical.
The nature of data set [4]: ASSAY II: proton transport across lipid membranes. The class given is biochemical.
Data set [5] in a line: Enhanced transmucosal delivery of co-administered agents in rat ileum or colon. The class given is in vivo.
For data set [6] the following is noted: rat, in vivo, 100000 uM.
For data set [7] the following is noted: rat, in vivo.
The conditions of data set [8]: rat, in vivo. This is another data set of the same source.
For data set [9] the following is noted: rat, in vivo. This is another data set of the same source.
The test system of data set [10] is Crithidia fasciculate. The following applies: antifungal agent alone; cited from earlier work.
Data set [11] in a line: Plasma vancomycin after ileal co-administration in the rat.
A short description of data set [12]: Plasma calcitonin after ileal co-administration in the rat. The following applies: absence of 1.
Data set [13] is described as follows: Plasma gentamicin after ileal co-administration in the rat. The note with it: absence of 1.

“Also recorded” adds a separate entry of the source. Where two headings read alike, the source gives them in different places.

`C[C@H](CCC(=O)O)[C@H]1CC[C@H]2[C@@H]3[C@H](O[C@H]4O[C@H](CO)[C@@H](O)[C@H](O)[C@H]4O)C[C@@H]4C[C@H](O)CC[C@]4(C)[C@H]3C[C@H](O[C@H]3O[C@H](CO)[C@@H](O)[C@H](O)[C@H]3O)[C@]12C` [3α-OH-cis-5,10-bis-α,α-glucosyl cholic acid K^+]: the “EFFECT (enhancement of erythromycin)” value in data set [1] (erythromycin 0.5 mM) and in data set [1] (erythromycin 1.0 mM) was “+” in each case.

Consider `COC(=O)CC[C@@H](C)[C@H]1CC[C@H]2[C@@H]3[C@H](O)C[C@@H]4C[C@H](OC(=O)c5ccc(OC)cc5)CC[C@]4(C)[C@H]3C[C@H](O)[C@]12C` [CDE, 3α-O-p-methoxybenzoyl-cis-5,10-cholic acid methyl ester, reference compound], for which the “enhancement of antifungal efficacy” value in the data set with Crithidia fasciculate [2] (with 24-TC (thiacholestanol)) is “lack of an enhancing effect; also recorded: not observed to act as an enhancer”. The “enhancing effect on erythromycin” value in data set [1] (lower concentrations (Table V)) is “does not function as an enhancer”.

Regarding `C[C@H](CCC(=O)O)[C@H]1CC[C@H]2[C@@H]3[C@H](O)C[C@@H]4C[C@H](O)CC[C@]4(C)[C@H]3CC[C@]12C` [Chenodeoxycholic Acid, reference compound], the “% increase in Fluorescence” value in data set [3] (0.117 mM final concentration) is recorded as 17.7%; in [3] (1.17 mM final concentration) it was 80.9%. For the same compound, the “efficacy in permeabilizing phospholipid membranes” value in [3] was “also permeabilize membranes in this assay, although at much higher concentrations”. The “% Decrease in Fluorescence” value in data set [4] (0.0116 mM final concentration) amounted to 8.2%. Moreover, the “enhancing effect on erythromycin” value in data set [1] (test compound 20 mM) is recorded as “did not have a detectable effect”.

Consider `C[C@H](CCC(=O)O)[C@H]1CC[C@H]2[C@@H]3[C@H](O)C[C@@H]4C[C@H](O)CC[C@]4(C)[C@H]3C[C@H](O)[C@]12C` [Cholic Acid, reference compound], for which the “% increase in Fluorescence” value in data set [3] (0.117 mM final concentration) amounted to 0%; in [3] (2.341 mM final concentration) it was 59.1%. Moreover, the “efficacy in permeabilizing phospholipid membranes” value in data set [3] is “also permeabilize membranes in this assay, although at much higher concentrations”. Also, the “% Decrease in Fluorescence” value in [4] was determined as 1.0%. For the same compound, the “enhancing effect on erythromycin” value in data set [1] (test compound 20 mM) is “did not have a detectable effect”.

As to `COC(=O)CC[C@@H](C)[C@H]1CC[C@H]2[C@@H]3[C@H](O[C@H]4O[C@H](CO)[C@@H](O)[C@H](O)[C@H]4O)C[C@@H]4C[C@@H](N)CC[C@]4(C)[C@H]3C[C@H](O[C@H]3O[C@H](CO)[C@@H](O)[C@H](O)[C@H]3O)[C@]12C` [Compound 1, 3β-amino-7α,12α-di(1'α-glucosyl)-5β-cholic acid methyl ester], the “plasma levels of co-administered agents” value in data set [5] is “increase the plasma levels of proteinaceous compounds; also recorded: resembled pharmacokinetic profiles of agents administered intravenously”. Besides, the “peak plasma levels of vancomycin” value in [6] lay within 15 to 47 µg/mL. In addition, the “plasma calcitonin versus amount of 1” value in data set [7] was “plasma calcitonin levels rise with increasing amounts of 1”. The “bioavailability of calcitonin” value in data set [7] (po) is on record as “significant amounts of calcitonin are made available with co-administration of 1”. The “plasma concentrations of gentamicin versus concentration of 1” value in data set [8] was “increasing plasma concentrations of the gentamicin”. Besides, in data set [9] (10000 uM), the “time to almost peak gentamicin levels” value is ≤ 10 min. Also, in [9] (30000 uM), the “ileal bioavailability of gentamicin” value amounted to 19.8%.

Take `C[C@H](CCC(=O)O)[C@H]1CC[C@H]2[C@@H]3CC[C@@H]4C[C@H](O)CC[C@]4(C)[C@H]3C[C@H](O)[C@]12C` [Deoxycholic Acid, reference compound]: the “efficacy in permeabilizing phospholipid membranes” value in data set [3] is on record as “also permeabilize membranes in this assay, although at much higher concentrations”. The “EFFECT (enhancement of erythromycin)” value in [1] (erythromycin 0.5 mM) and in data set [1] (erythromycin 1.0 mM) was “+” throughout. Further, the “enhancing effect on erythromycin” value in data set [1] (test compound 20 mM) is “showed any effect”.

With `COC(=O)CC[C@@H](C)[C@H]1CC[C@H]2[C@@H]3[C@H](O[C@H]4O[C@H](CO)[C@@H](O)[C@H](O)[C@H]4O)C[C@@H]4C[C@H](OC(=O)c5ccc(OC)cc5)CC[C@]4(C)[C@H]3C[C@H](O[C@H]3O[C@H](CO)[C@@H](O)[C@H](O)[C@H]3O)[C@]12C` [Entry 8, 3α-O-p-methoxybenzoyl-cis-5,10-bis-α,α-7,12-glucosyl cholic acid methyl ester], the “% increase in Fluorescence” value in data set [3] (0.117 mM final concentration) was 89.1%. Further, the “efficacy in permeabilizing phospholipid membranes” value is given as “the most effective glycosylated steroids tested” in data set [3] and “a good membrane permeabilizing agent” in data set [3] (listed as CME). Also, the results for the “% Decrease in Fluorescence” value in data set [4] (0.00579 mM final concentration) and in data set [4] (0.0116 mM final concentration) were 20.6% and 32.2%, respectively. Moreover, the “enhancement of antifungal efficacy” value in the data set with Crithidia fasciculate [2] (with 10-TSA (thiastearic acid), listed as CME) was “enhancing effect; also recorded: enhances the efficacy of 10-TSA dramatically”; in the data set on Crithidia fasciculate [2] (with 24-TC (thiacholestanol), listed as CME) it was “enhancing effect; also recorded: enhance the efficacy of 24-TC”. Also, the “EFFECT (clearing)” value in data set [1] (compound 0.001 mM, erythromycin 0.01 mM) is reported as “+”; in data set [1] (compound 0.01 mM, erythromycin 0.01 mM), “+”; in data set [1] (compound 0.1 mM, erythromycin 0.01 mM), “+”; in data set [1] (compound 0.1 mM, erythromycin 0.1 mM) it was “+”. In addition, the “EFFECT (enhancement of erythromycin)” value in [1] (erythromycin 0.5 mM) and in [1] (erythromycin 1.0 mM) was “+++” each time. For the same compound, the figures for the “enhancing effect on erythromycin” value in data set [1] (lower concentrations (Table V)) and in data set [1] (test compound 20 mM) were “acts as an enhancer at very low concentrations” and “the best "enhancer" in this assay”, respectively.

For the compound `CCCCCCCCSCCCCCCCCC(=O)O` [Entry 10-TSA, 10-thiastearic acid], the IC50 (usually the concentration at which inhibition is half-maximal) in the data set on Crithidia fasciculate [10] is 10 µM.

In the case of `COC(=O)CC[C@@H](C)[C@H]1CC[C@H]2[C@@H]3[C@H](O[C@H]4O[C@H](CO)[C@@H](O)[C@H](O)[C@H]4O)C[C@H]4C[C@H](OC(=O)c5ccccc5)CC[C@]4(C)[C@H]3C[C@H](O[C@H]3O[C@H](CO)[C@@H](O)[C@H](O)[C@H]3O)[C@]12C` [Entry 11, 3α-O-benzoyl-trans-5,10-bis-α,α-7,12-glucosyl cholic acid methyl ester], the “% increase in Fluorescence” value in data set [3] (0.117 mM final concentration) is recorded as 98%. Moreover, the “efficacy in permeabilizing phospholipid membranes” value in data set [3] was “the most effective glycosylated steroids tested”. For the same compound, the “% Decrease in Fluorescence” value came to 14.7% in data set [4] (0.00585 mM final concentration) and 22.0% in data set [4] (0.0116 mM final concentration). For the same compound, the “EFFECT (enhancement of erythromycin)” value in [1] (erythromycin 0.5 mM) and in data set [1] (erythromycin 1.0 mM) was “+” in each case.

As for `C[C@H](CCC(=O)O)[C@H]1CC[C@H]2[C@@H]3[C@H](O[C@@H]4O[C@H](CO)[C@@H](O)[C@H](O)[C@H]4O)C[C@H]4C[C@H](O)CC[C@]4(C)[C@H]3C[C@H](O[C@@H]3O[C@H](CO)[C@@H](O)[C@H](O)[C@H]3O)[C@]12C` [Entry 13, 3α-hydroxy-trans-5,10-bis-β,β-7,12-glucosyl cholic acid], the “% increase in Fluorescence” value in [3] (0.117 mM final concentration) was found to be 0%. In addition, the “% Decrease in Fluorescence” value in data set [4] (0.000579 mM final concentration) is 2.8%; in data set [4] (0.00579 mM final concentration), 35.2%; in data set [4] (0.0116 mM final concentration), 70.6%.

On to `COC(=O)CC[C@@H](C)[C@H]1CC[C@H]2[C@@H]3[C@H](O)C[C@@H]4C[C@H](O)CC[C@]4(C)[C@H]3C[C@H](O)[C@]12C` [Methyl Cholate, reference compound], for which the “% increase in Fluorescence” value in data set [3] (0.117 mM final concentration) is recorded as 25.4%. For the same compound, in data set [4] (0.0116 mM final concentration), the “% Decrease in Fluorescence” value was 5.4%.

Regarding `CN[C@H](CC(C)C)C(=O)N[C@H]1C(=O)N[C@@H](CC(N)=O)C(=O)N[C@H]2C(=O)N[C@H]3C(=O)N[C@H](C(=O)N[C@H](C(=O)O)c4cc(O)cc(O)c4-c4cc3ccc4O)[C@H](O)c3ccc(c(Cl)c3)Oc3cc2cc(c3O[C@@H]2O[C@H](CO)[C@@H](O)[C@H](O)[C@H]2O[C@H]2C[C@](C)(N)[C@H](O)[C@H](C)O2)Oc2ccc(cc2Cl)[C@H]1O` [Vancomycin], the “clearance from the circulation” value in data set [11] (ileum versus IV) is “cleared more slowly from the circulation when administered via the ileum than via IV”. In data set [11] (rat, in vivo, 5 mg), the highest concentration (Cmax) (as a rule, the peak of the concentration-time curve) lay within 5000 to 10000 ng/mL.

calcitonin: the “plasma calcitonin” value in data set [12] was “no appreciable amounts of calcitonin are found in the blood”.

Take gentamicin: in [13], the “ileal bioavailability of gentamicin” value was found to be 10.7%. The “plasma concentrations of gentamicin” value in [13] (ileal, 5 mg antibiotic) is 1000 to 7000 ng/mL.
